Laboratory results: patent US4264577A, “Contraceptive methods and compositions” (Eli Lilly and Company, priority 1980, dated 1981)
Values joined by “and” are separate entries in the source; they are usually repeats but may differ in a detail not shown here. Identical values can stand only once.

What was measured:
[1] = Release from coated medicated dimethylpolysiloxane rods into water; format: physicochemical
Protocol: Dimethylpolysiloxane rubber rods (3 mm. diameter) containing 25% (W/W) sodium n-tetradecyl sulfate are prepared by the procedure described in Example 3, Method B. The rods are cut into one-inch pieces. A coating solution is prepared by dissolving 12.5 grams of dimethylpolysiloxane elastomer (DOW-Corning MDX-4-4210) in 37.5 ml of methylene chloride and then dissolving 1.88 grams of curing agent (Dow-Corning MDX-4-4210) therein. A straight pin is placed in the end of each one inch piece of rod. The piece of rod, held by the pin, is dipped into the above solution, and the rod is withdrawn from the solution and drained. The piece of rod is rotated as methylene chloride evaporates. The coated rods are placed in an oven at 120° C. for 10 minutes to cure the coating. The coated rods are then placed in a vacuum oven at 40° C. overnight to remove all methylene chloride. A second and third coat can be applied by the above method.
The release of sodium n-tetradecyl sulfate from the coated medicated rods, prepared as above-described, into water is shown in Table 10, below:
^(a) Weight of rods: 500 mg.; amount of water added: 10 ml.;
temperature: 37° C.; active compound determined by methylene blue

[2] = biological target: T1, Acrosin (purified from boar sperm) (Sus scrofa, UniProt P08001); assay: Acrosin inhibition in vitro (BAPNA substrate); format: biochemical; conditions: sodium salts
T1 construct: purified from boar sperm; from tissue; host or cells: boar sperm
T1 sequence (P08001 40-338 limits assumed): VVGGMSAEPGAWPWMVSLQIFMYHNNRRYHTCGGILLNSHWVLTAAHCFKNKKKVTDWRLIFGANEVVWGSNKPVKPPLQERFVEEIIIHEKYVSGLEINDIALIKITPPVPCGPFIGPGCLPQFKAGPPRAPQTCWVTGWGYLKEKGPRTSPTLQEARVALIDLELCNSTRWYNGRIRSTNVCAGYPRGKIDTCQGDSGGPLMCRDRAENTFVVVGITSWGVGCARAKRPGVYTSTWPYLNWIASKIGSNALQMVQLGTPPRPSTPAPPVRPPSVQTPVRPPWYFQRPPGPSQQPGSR
T1 sequence (P08001 17-39 limits assumed): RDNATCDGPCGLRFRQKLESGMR
Protocol: A control using the buffer solution without the test compound added is also run. A 200 μl-sample of the incubation mixture is then withdrawn and is added to a cuvette containing BAPNA (1 ml.) and triethanolamine buffer (2 ml.). The mixture is stirred and placed in a Gilford recording spectrophotometer. The increase in optical density at 383 nm is measured. One unit of acrosin activity is defined as the amount of acrosin which will cause an increase in optical density at 383 nm. of 0.001/minute. One unit of inhibitory activity is defined as the amount of inhibitor which will cause a reduction in the increase in optical density at 383 nm. of 0.001/minute.

rats = conditions: orally (rats); cited from earlier work
mice = conditions: I.P. (mice); cited from earlier work
[3] = test system: cumulus oophorus of rabbit ova; assay: Removal of cumulus oophorus from ova by hyaluronidase, in vitro; format: cell-based; conditions: 10 μl. of 10 mg./ml. solution in 1 ml medium, 37° C.; sulfate
Protocol: In the absence of sodium n-tetradecyl sulfate, complete removal of the cumulus oophorus and zona pellucida is observed.
Female rabbits are given 100 units of pregnant mares serum (PMS), IM, and 134 units of HCG, IV. After 13 hours the animals are sacrificed, and the ovaries are excised. The ovaries are submerged in calcium-free Ringer's solution containing 20% rabbit serum which had been heated to 55° C. for 20 minutes. Ova with cumulus intact are removed and placed in calcium-free Ringer's solution for incubation at 37° C. Hyaluronidase (10 μl.) of a 10 mg./ml. solution in calcium-free Ringer's solution is added to 20 ova in 1 ml. of the incubation medium. To 10 ova in the same medium is added 10 μl. of a solution of sodium n-tetradecyl sulfate (10 mg./ml.) in calcium-free Ringer's solution. To 10 other ova in the same media is added 10 μl. of calcium-free Ringer's solution as control. The mixtures are incubated at 37° C., and the cumulus oophorus is examined at 15 minute intervals with an American Optical stereomicroscope. In the absence of sodium tetradecyl sulfate, the cumulus oophorus is completely removed.

female rabbits = assay: Drug release rate and efficacy in vivo, intravaginal medicated rubber rings; design: species or system rabbit; conditions: vaginal ring 500 mg, 20% W/W; for Amount of sodium n-tetradecyl sulfate released. (μg. per day): per animal; for No. of Embryos (per animal): sulfate
Protocol: Dimethylpolysiloxane rods (4 mm. diameter) weighing 500 mg. and containing 20% (W/W) sodium n-tetradecyl sulfate (prepared by Example 3, Method B, lot no. 225-3) are formed into a circle of approximately 20 mm. diameter. The rings are inserted into the vagina of female rabbits and are held in place by sutures. The rabbits are bred either 7 or 32 days after insertion of the rings. Eleven days after breeding, the animals are sacrificed and the genital system examined for pregnancy. The rings are removed, washed, and extracted with methanol (24 hour continuous,) to remove the remaining sodium n-tetradecyl sulfate. The amount of active compound is determined by the methylene blue method, as described in Part A, above. The amount of sodium n-tetradecyl sulfate remaining in the circular rod is subtracted from the original amount present, and the difference is assumed to be the amount released over the time period.

CCCCCCCCCCCCCCOS(=O)(=O)[O-].[Na+] [n-tetradecyl, sodium n-tetradecyl sulfate]
Amount of sodium n-tetradecyl sulfate released (mg. per 7 days) ([1]; 1 coat, Days 7, 500 mg rod, 25% W/W, 10 ml water 37° C.): 0 mg. per 7 days | Amount of sodium n-tetradecyl sulfate released (mg. per 7 days) ([1]; 1 coat, Days 14): 0.14 mg. per 7 days | Amount of sodium n-tetradecyl sulfate released (mg. per 7 days) ([1]; 1 coat, Days 21): 77.4 mg. per 7 days | Amount of sodium n-tetradecyl sulfate released (mg. per 7 days) ([1]; 1 coat, Days 28): 414.0 mg. per 7 days | Amount of sodium n-tetradecyl sulfate released (mg. per 7 days) ([1]; 1 coat, Days 35): 128.0 mg. per 7 days | Amount of sodium n-tetradecyl sulfate released (mg. per 7 days) ([1]; 1 coat, Days 42): 586.0 mg. per 7 days | Amount of sodium n-tetradecyl sulfate released (mg. per 7 days) ([1]; 1 coat, Days 49): 370.0 mg. per 7 days | Amount of sodium n-tetradecyl sulfate released (mg. per 7 days) ([1]; 1 coat, Days 56): 524.0 mg. per 7 days | Amount of sodium n-tetradecyl sulfate released (mg. per 7 days) ([1]; 1 coat, Days 63): 571.0 mg. per 7 days | Amount of sodium n-tetradecyl sulfate released (mg. per 7 days) ([1]; 1 coat, Days 70): 524.0 mg. per 7 days | Amount of sodium n-tetradecyl sulfate released (mg. per 7 days) ([1]; 1 coat, Days 77): 471.0 mg. per 7 days | Amount of sodium n-tetradecyl sulfate released (mg. per 7 days) ([1]; 1 coat, Days 84): 386.0 mg. per 7 days | Amount of sodium n-tetradecyl sulfate released (mg. per 7 days) ([1]; 1 coat, Days 91): 330.0 mg. per 7 days | Amount of sodium n-tetradecyl sulfate released (mg. per 7 days) ([1]; 1 coat, Days 98): 349.0 mg. per 7 days | Amount of sodium n-tetradecyl sulfate released (mg. per 7 days) ([1]; 1 coat, Days 105): 240.0 mg. per 7 days | Amount of sodium n-tetradecyl sulfate released (mg. per 7 days) ([1]; 1 coat, Days 112): 329.0 mg. per 7 days | Amount of sodium n-tetradecyl sulfate released (mg. per 7 days) ([1]; 1 coat, Days 119): 286.0 mg. per 7 days | Amount of sodium n-tetradecyl sulfate released (mg. per 7 days) ([1]; 1 coat, Days 126): 430.0 mg. per 7 days | Amount of sodium n-tetradecyl sulfate released (mg. per 7 days) ([1]; 2 coat, Days 7): 0 mg. per 7 days | Amount of sodium n-tetradecyl sulfate released (mg. per 7 days) ([1]; 2 coat, Days 14): 0 mg. per 7 days | Amount of sodium n-tetradecyl sulfate released (mg. per 7 days) ([1]; 2 coat, Days 21): .03 mg. per 7 days | Amount of sodium n-tetradecyl sulfate released (mg. per 7 days) ([1]; 2 coat, Days 28): 628.0 mg. per 7 days | Amount of sodium n-tetradecyl sulfate released (mg. per 7 days) ([1]; 2 coat, Days 35): 124.0 mg. per 7 days | Amount of sodium n-tetradecyl sulfate released (mg. per 7 days) ([1]; 2 coat, Days 42): 96.0 mg. per 7 days | Amount of sodium n-tetradecyl sulfate released (mg. per 7 days) ([1]; 2 coat, Days 49): 186.0 mg. per 7 days | Amount of sodium n-tetradecyl sulfate released (mg. per 7 days) ([1]; 2 coat, Days 56): 135.0 mg. per 7 days | Amount of sodium n-tetradecyl sulfate released (mg. per 7 days) ([1]; 2 coat, Days 63): 183.0 mg. per 7 days | Amount of sodium n-tetradecyl sulfate released (mg. per 7 days) ([1]; 2 coat, Days 70): 174.0 mg. per 7 days | Amount of sodium n-tetradecyl sulfate released (mg. per 7 days) ([1]; 2 coat, Days 77): 229.0 mg. per 7 days | Amount of sodium n-tetradecyl sulfate released (mg. per 7 days) ([1]; 2 coat, Days 84): 170.0 mg. per 7 days | Amount of sodium n-tetradecyl sulfate released (mg. per 7 days) ([1]; 2 coat, Days 91): 200.0 mg. per 7 days | Amount of sodium n-tetradecyl sulfate released (mg. per 7 days) ([1]; 2 coat, Days 98): 190.0 mg. per 7 days | Amount of sodium n-tetradecyl sulfate released (mg. per 7 days) ([1]; 2 coat, Days 105): 224.0 mg. per 7 days | Amount of sodium n-tetradecyl sulfate released (mg. per 7 days) ([1]; 2 coat, Days 112): 121.0 mg. per 7 days | Amount of sodium n-tetradecyl sulfate released (mg. per 7 days) ([1]; 2 coat, Days 119): 100.0 mg. per 7 days | Amount of sodium n-tetradecyl sulfate released (mg. per 7 days) ([1]; 2 coat, Days 126): 92.0 mg. per 7 days | Amount of sodium n-tetradecyl sulfate released (mg. per 7 days) ([1]; 3 coat, Days 7): 0 mg. per 7 days | Amount of sodium n-tetradecyl sulfate released (mg. per 7 days) ([1]; 3 coat, Days 14): .02 mg. per 7 days | Amount of sodium n-tetradecyl sulfate released (mg. per 7 days) ([1]; 3 coat, Days 21): 0 mg. per 7 days | Amount of sodium n-tetradecyl sulfate released (mg. per 7 days) ([1]; 3 coat, Days 28): 10.0 mg. per 7 days | Amount of sodium n-tetradecyl sulfate released (mg. per 7 days) ([1]; 3 coat, Days 35): 142.0 mg. per 7 days | Amount of sodium n-tetradecyl sulfate released (mg. per 7 days) ([1]; 3 coat, Days 42): 0 mg. per 7 days | Amount of sodium n-tetradecyl sulfate released (mg. per 7 days) ([1]; 3 coat, Days 49): 186.0 mg. per 7 days | Amount of sodium n-tetradecyl sulfate released (mg. per 7 days) ([1]; 3 coat, Days 56): 143.0 mg. per 7 days | Amount of sodium n-tetradecyl sulfate released (mg. per 7 days) ([1]; 3 coat, Days 63): 194.0 mg. per 7 days | Amount of sodium n-tetradecyl sulfate released (mg. per 7 days) ([1]; 3 coat, Days 70): 174.0 mg. per 7 days | Amount of sodium n-tetradecyl sulfate released (mg. per 7 days) ([1]; 3 coat, Days 77): 157.0 mg. per 7 days | Amount of sodium n-tetradecyl sulfate released (mg. per 7 days) ([1]; 3 coat, Days 84): 160.0 mg. per 7 days | Amount of sodium n-tetradecyl sulfate released (mg. per 7 days) ([1]; 3 coat, Days 91): 140.0 mg. per 7 days | Amount of sodium n-tetradecyl sulfate released (mg. per 7 days) ([1]; 3 coat, Days 98): 159.0 mg. per 7 days | Amount of sodium n-tetradecyl sulfate released (mg. per 7 days) ([1]; 3 coat, Days 105): 196.0 mg. per 7 days | Amount of sodium n-tetradecyl sulfate released (mg. per 7 days) ([1]; 3 coat, Days 112): 157.0 mg. per 7 days | Amount of sodium n-tetradecyl sulfate released (mg. per 7 days) ([1]; 3 coat, Days 119): 150.0 mg. per 7 days | Amount of sodium n-tetradecyl sulfate released (mg. per 7 days) ([1]; 3 coat, Days 126): 156.0 mg. per 7 days | Inhibition (units/mg.) ([2]; Conc. of Test Solution 1 Mg/ml): 960,000 units/mg. | Inhibition (units/mg.) ([2]; Conc. of Test Solution 10 Mg/ml): 14,200 units/mg. | LD50 (rats): greater than 3.5 g/kg. | LD50 (mice): 342 mg/kg | state of cumulus oophorus in presence of hyaluronidase [3]: remains substantially intact | Amount of sodium n-tetradecyl sulfate released. (μg. per day) (female rabbits; after seven days): 760 μg. per day and 470 μg. per day and 961 μg. per day and 277 μg. per day and 894 μg. per day | Amount of sodium n-tetradecyl sulfate released. (μg. per day) (female rabbits; after thirty-two days): 644 μg. per day and 522 μg. per day and 288 μg. per day | No. of Embryos (per animal) (female rabbits; bred after seven days): 0 and 8 and 5 | No. of Embryos (per animal) (female rabbits; bred after thirty-two days): 0 and 3
